Source: US8889722B2, “Pharmaceutical composition containing optically active compound having thrombopoietin receptor agonist activity, and intermediate therefor” (Shionogi & Co., Ltd., priority 2007, dated 2014)

Key:
human TPO receptor = molecular target: T1, human TPO receptor (Homo sapiens, UniProt P40238); test: TPO receptor responsiveness: proliferation of TPO-dependent BaF/hTPOR cells (WST-1); assay type: cell-based; settings: 20 hours culture, WST-1 absorption at 450 nm, concentration exhibiting half-maximum responsiveness of human TPO, read-out: ED50 (the source's name)
T1 construct: expressed in transfected cells; host or cells: BaF-B03 (mouse pro-B cell line), strain BaF/hTPOR
T1 sequence (P40238 26-635): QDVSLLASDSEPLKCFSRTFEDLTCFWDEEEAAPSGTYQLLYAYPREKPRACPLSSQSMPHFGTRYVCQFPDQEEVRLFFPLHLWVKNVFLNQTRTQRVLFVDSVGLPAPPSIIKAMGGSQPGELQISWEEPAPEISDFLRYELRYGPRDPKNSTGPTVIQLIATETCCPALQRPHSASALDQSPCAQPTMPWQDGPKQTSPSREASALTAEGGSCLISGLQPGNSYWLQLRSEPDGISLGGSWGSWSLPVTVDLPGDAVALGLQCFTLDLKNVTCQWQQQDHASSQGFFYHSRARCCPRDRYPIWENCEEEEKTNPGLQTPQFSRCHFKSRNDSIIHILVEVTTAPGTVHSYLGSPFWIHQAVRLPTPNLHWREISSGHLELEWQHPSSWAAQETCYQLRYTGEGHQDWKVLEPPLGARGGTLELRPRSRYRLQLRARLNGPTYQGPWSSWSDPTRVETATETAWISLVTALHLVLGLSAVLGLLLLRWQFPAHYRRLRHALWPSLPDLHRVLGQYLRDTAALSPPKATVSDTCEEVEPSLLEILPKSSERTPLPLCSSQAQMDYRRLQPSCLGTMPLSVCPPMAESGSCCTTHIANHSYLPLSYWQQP
Protocol: TPO receptor responsiveness of the compound represented by the formula (I) was measured using TPO-dependent cell strain BaF/hTPOR made by introducing a human TPO receptor gene into a BaF-B03 cell according to the method described in Collins et al., J. Cell. Physiol., 137: 293-298 (1988). A nucleotide sequence of a gene encoding thrombopoietin receptor is described in Vigon et al., Proc. Natl. Acad. Sci, 89:5640-5644 (1992). […] A BAF/hTPOR cell proliferated in a RPMI medium with 10% WEHI-3 culture solution added thereto was washed with PBS once, suspended in a RPMI medium with no WHEHI-3 culture solution added thereto, and cells were seeded on a 96-well microplate at a 5×10^4/well, and the present compound or TPO was added thereto. After cultured at 37° C. for 20 hours under 5% CO2 atmosphere, a WST-1 reagent (manufactured by Takara Shuzo, Co., Ltd) being a cell proliferation determination reagent was added, and absorption at 450 nm was measured after 4 hours.

Row | Structure (SMILES) | EC50 (human TPO receptor) | melting point
1 | CCCCCC[C@@H](OC)c1cccc(-c2csc(NC(=O)c3cc(Cl)c(/C=C(\C)C(=O)O)c(Cl)c3)n2)c1OC [Compound C-1A, (R)-(E)-3-(2,6-dichloro-4-{4-[2-methyloxy-3-(1-methyloxyheptyl)phenyl]thiazol-2-ylcarbamoyl}phenyl)-2-methylacrylic acid] | 3.09 nM | –
2 | CCCO[C@H](c1cccc(-c2csc(NC(=O)c3cc(Cl)c(/C=C(\C)C(=O)O)c(Cl)c3)n2)c1OC)C(C)(C)C [Compound C-9B, (S)-(E)-3-(2,6-dichloro-4-{4-[3-(2,2-dimethyl-1-propyloxypropyl)-2-methyloxyphenyl]thiazol-2-ylcarbamoyl}phenyl)-2-methylacrylic acid] | 0.09 nM | –
3 | CCCCCCO[C@H](C)c1cccc(-c2csc(NC(=O)c3cc(Cl)c(/C=C(\C)C(=O)O)c(Cl)c3)n2)c1OC [Compound C-3A, (R)-(E)-3-(2,6-dichloro-4-{4-[3-(1-hexyloxyethyl)-2-methyloxyphenyl]thiazol-2-ylcarbamoyl}phenyl)-2-methylacrylic acid] | 1.4 nM | –

Further compounds by falling EC50 (human TPO receptor), results first:

Row | EC50 (human TPO receptor) | melting point | Structure (SMILES)
4 | 2.08 nM | 162 to 164 °C | CCCCCC[C@H](OC)c1cccc(-c2csc(NC(=O)c3cc(Cl)c(/C=C(\C)C(=O)O)c(Cl)c3)n2)c1OC [Compound C-1B, (S)-(E)-3-(2,6-dichloro-4-{4-[2-methyloxy-3-(1-methyloxyheptyl)-phenyl]thiazol-2-ylcarbamoyl}phenyl)-2-methylacrylic acid]
5 | 1.09 nM | – | CCCCCCO[C@@H](C)c1cccc(-c2csc(NC(=O)c3cc(Cl)c(/C=C(\C)C(=O)O)c(Cl)c3)n2)c1OC [Compound C-3B, (S)-(−)-(E)-3-(2,6-dichloro-4-{4-[3-(1-hexyloxyethyl)-2-methyloxyphenyl]thiazol-2-ylcarbamoyl}phenyl)-2-methylacrylic acid]
